According to US20120142646A1, “Novel Compounds 621” (priority 2006, published 2012):
Where a name gives a salt, the structure may show the parent alone.

Biological target: T1, Adrenergic β2 (Homo sapiens, UniProt P07550)
T1 construct: Adherent H292 cells were removed from tissue culture flasks; endogenous in cells; host or cells: H292 cells
Assay: Adrenergic β2 mediated cAMP production in H292 cells (AlphaScreen cAMP detection)
Format: cell-based
Parameters: key to β2 Int Act: fraction of formoterol maximum activity (formoterol = 1)
Conditions: Intrinsic Activity as a fraction relative to the maximum activity determined for formoterol
Procedure: Adrenergic β2 Mediated cAMP Production
H292 cells were grown in 225 cm2 flasks incubator at 37° C., 5% CO2 in RPMI medium containing, 10% (v/v) FBS (foetal bovine serum) and 2 mM L-glutamine.
Adherent H292 cells were removed from tissue culture flasks by treatment with Accutase™ cell detachment solution for 15 minutes. Flasks were incubated for 15 minutes in a humidified incubator at 37° C., 5% CO2. Detached cells were re-suspended in RPMI media (containing 10% (v/v) FBS and 2 mM L-glutamine) at 1×10^6 cells per mL. 10000 cells in 100 μL were added to each well of a tissue-culture-treated 96-well plate and the cells incubated overnight in a humidified incubator at 37° C., 5% CO2. The culture media was removed and cells were washed twice with 100 μL assay buffer and replaced with 50 μL assay buffer (HBSS solution containing 10 mM HEPES pH7.4 and 5 mM glucose). Cells were rested at room temperature for 20 minutes after which time 25 μL of rolipram (1.2 mM made up in assay buffer containing 2.4% (v/v) dimethylsulphoxide) was added. Cells were incubated with rolipram for 10 minutes after which time test compounds were added and the cells were incubated for 60 minutes at room temperature. The final rolipram concentration in the assay was 300 μM and final vehicle concentration was 1.6% (v/v) dimethylsulphoxide. The reaction was stopped by removing supernatants, washing once with 100 μL assay buffer and replacing with 50 μL lysis buffer. The cell monolayer was frozen at −80° C. for 30 minutes (or overnight).
AlphaScreen™ cAMP Detection
The concentration of cAMP (cyclic adenosine monophosphate) in the cell lysate was determined using AlphaScreen™ methodology. The frozen cell plate was thawed for 20 minutes on a plate shaker then 10 μL of the cell lysate was transferred to a 96-well white plate. 40 μL of mixed AlphaScreen™ detection beads pre-incubated with biotinylated cAMP, was added to each well and the plate incubated at room temperature for 10 hours in the dark. The AlphaScreen™ signal was measured using an EnVision spectrophotometer (Perkin-Elmer Inc.) with the recommended manufacturer's settings. cAMP concentrations were determined by reference to a calibration curve determined in the same experiment using standard cAMP concentrations. Concentration response curves for agonists were constructed and data was fitted to a four parameter logistic equation to determine both the pEC50 and Intrinsic Activity. Intrinsic Activity was expressed as a fraction relative to the maximum activity determined for formoterol in each experiment.

T1 sequence (P07550 whole entry): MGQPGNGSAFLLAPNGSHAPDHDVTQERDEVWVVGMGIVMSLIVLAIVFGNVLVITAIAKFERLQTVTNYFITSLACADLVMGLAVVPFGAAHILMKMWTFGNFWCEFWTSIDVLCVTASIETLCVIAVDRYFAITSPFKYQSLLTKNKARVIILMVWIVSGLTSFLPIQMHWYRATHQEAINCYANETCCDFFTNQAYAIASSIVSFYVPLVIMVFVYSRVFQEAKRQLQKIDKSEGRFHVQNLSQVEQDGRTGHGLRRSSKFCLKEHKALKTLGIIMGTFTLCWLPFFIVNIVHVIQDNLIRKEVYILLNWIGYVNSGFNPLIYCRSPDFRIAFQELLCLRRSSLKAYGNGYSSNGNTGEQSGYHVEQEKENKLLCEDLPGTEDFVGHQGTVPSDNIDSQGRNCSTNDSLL

| Compound | β2 Int Act |
| --- | --- |
| O=C1COc2c(CCNCCN(C(=O)CCNCCc3cc(F)cc(Cl)c3)C3CCCCC3)ccc(O)c2N1 [Example 41, 3-(3-Chloro-5-fluorophenethylamino)-N-cyclohexyl-N-(2-(2-(5-hydroxy-3-oxo-3,4-dihydro-2H-benzo[b][1,4]oxazin-8-yl)ethylamino)ethyl)propanamide bis(trifluoroacetate)] | 0.95 |
| CCCC[C@@H](C)N(CCNCCc1ccc(O)c2c1OCC(=O)N2)C(=O)CCNCCc1ccccc1Cl [Example 46, (R)-3-(2-Chlorophenethylamino)-N-(hexan-2-yl)-N-(2-(2-(5-hydroxy-3-oxo-3,4-dihydro-2H-benzo[b][1,4]oxazin-8-yl)ethylamino)ethyl)propanamide bis(trifluoroacetate)] | 0.89 |
| O=C1Cc2c(CCNCCN(C(=O)CCNCCc3cccc(F)c3)C3CCCCC3)ccc(O)c2N1 [Example 20, N-Cyclohexyl-3-(3-fluorophenethylamino)-N-(2-(2-(7-hydroxy-2-oxoindolin-4-yl)ethylamino)ethyl)propanamide dihydrobromide] | 0.78 |
| CCCC[C@@H](C)N(CCNCCc1ccc(O)c2c1OCC(=O)N2)C(=O)CCNCCc1cc(F)ccc1C [Example 57, (R)-3-(5-Fluoro-2-methylphenethylamino)-N-(hexan-2-yl)-N-(2-(2-(5-hydroxy-3-oxo-3,4-dihydro-2H-benzo[b][1,4]oxazin-8-yl)ethylamino)ethyl)propanamide bis(trifluoroacetate)] | 0.91 |
| O=C1COc2c(CCNCCN(C(=O)CCOCCc3ccc(F)cc3)C3CCCCC3)ccc(O)c2N1 [Example 75, N-Cyclohexyl-3-(4-fluorophenethoxy)-N-(2-(2-(5-hydroxy-3-oxo-3,4-dihydro-2H-benzo[b][1,4]oxazin-8-yl)ethylamino)ethyl)propanamide trifluoroacetate] | 0.96 |
| CCCC[C@@H](C)N(CCNCCc1ccc(O)c2c1OCC(=O)N2)C(=O)CCNCCc1cccc(Cl)c1 [Example 44, (R)-3-(3-Chlorophenethylamino)-N-(hexan-2-yl)-N-(2-(2-(5-hydroxy-3-oxo-3,4-dihydro-2H-benzo[b][1,4]oxazin-8-yl)ethylamino)ethyl)propanamide bis(trifluoroacetate)] | 0.89 |
| O=C1COc2c(CCNCCN(C(=O)CCNCCc3ccc(Cl)c(Cl)c3)C3CCCCCC3)ccc(O)c2N1 [Example 26, N-Cycloheptyl-3-(3,4-dichlorophenethylamino)-N-(2-(2-(5-hydroxy-3-oxo-3,4-dihydro-2H-benzo[b][1,4]oxazin-8-yl)ethylamino)ethyl)propanamide bis(trifluoroacetate)] | 0.74 |
| CCCC[C@@H](C)N(CCNCCc1ccc(O)c2c1OCC(=O)N2)C(=O)CCNCCc1ccc(F)c(Cl)c1 [Example 48, (R)-3-(3-Chloro-4-fluorophenethylamino)-N-(hexan-2-yl)-N-(2-(2-(5-hydroxy-3-oxo-3,4-dihydro-2H-benzo[b][1,4]oxazin-8-yl)ethylamino)ethyl)propanamide bis(trifluoroacetate)] | 0.91 |
| CC(C)[C@@H](C)N(CCNCCc1ccc(O)c2c1OCC(=O)N2)C(=O)CCNCCc1ccc(Cl)c(Cl)c1 [Example 59, (R)-3-(3,4-Dichlorophenethylamino)-N-(2-(2-(5-hydroxy-3-oxo-3,4-dihydro-2H-benzo[b][1,4]oxazin-8-yl)ethylamino)ethyl)-N-(3-methylbutan-2-yl)propanamide dihydrochloride] | 0.87 |
| CCCC[C@@H](C)N(CCNCCc1ccc(O)c2c1OCC(=O)N2)C(=O)CCNCCc1cc(F)ccc1F [Example 54, (R)-3-(2,5-Difluorophenethylamino)-N-(hexan-2-yl)-N-(2-(2-(5-hydroxy-3-oxo-3,4-dihydro-2H-benzo[b][1,4]oxazin-8-yl)ethylamino)ethyl)propanamide bis(trifluoroacetate)] | 0.96 |

Second part, the compound after the results:

| β2 Int Act | Compound |
| --- | --- |
| 0.95 | O=C(CCNCCc1cccc(F)c1F)N(CCNCCc1ccc(O)c2[nH]c(=O)ccc12)C1CCCCC1 [Example 18, N-Cyclohexyl-3-(2,3-difluorophenethylamino)-N-(2-(2-(8-hydroxy-2-oxo-1,2-dihydroquinolin-5-yl)ethylamino)ethyl)propanamide bis(trifluoroacetate)] |
| 0.87 | O=C(CCNCCc1cccc(F)c1)N(CCNCCc1ccc(O)c2[nH]c(=O)ccc12)C1CCCCC1 [Example 19, N-Cyclohexyl-3-(3-fluorophenethylamino)-N-(2-(2-(8-hydroxy-2-oxo-1,2-dihydroquinolin-5-yl)ethylamino)ethyl)propanamide] |
| 0.91 | C[C@H](CNCCC(=O)N(CCNCCc1ccc(O)c2[nH]c(=O)ccc12)C1CCCCCC1)c1ccccc1 [Example 9, (S)—N-Cycloheptyl-N-(2-(2-(8-hydroxy-2-oxo-1,2-dihydroquinolin-5-yl)ethylamino)ethyl)-3-(2-phenylpropylamino)propanamide bis(trifluoroacetate)] |
| 0.88 | O=C1COc2c(CCNCCN(C(=O)CCNCCc3cccc(F)c3)C3CCCCCC3)ccc(O)c2N1 [Example 69, N-Cycloheptyl-3-(3-fluorophenethylamino)-N-(2-(2-(5-hydroxy-3-oxo-3,4-dihydro-2H-benzo[b][1,4]oxazin-8-yl)ethylamino)ethyl)propanamide bis(trifluoroacetate)] |
| 0.79 | O=C1COc2c(CCNCCN(C(=O)CCNCCc3ccc(Cl)cc3)C3CCCCCC3)ccc(O)c2N1 [Example 63, 3-(4-Chlorophenethylamino)-N-cycloheptyl-N-(2-(2-(5-hydroxy-3-oxo-3,4-dihydro-2H-benzo[b][1,4]oxazin-8-yl)ethylamino)ethyl)propanamide bis(trifluoroacetate)] |
| 0.89 | O=C1COc2c(CCNCCN(C(=O)CCNCCc3cccc(Cl)c3)C3CCCCC3)ccc(O)c2N1 [Example 27, 3-(3-Chlorophenethylamino)-N-cyclohexyl-N-(2-(2-(5-hydroxy-3-oxo-3,4-dihydro-2H-benzo[b][1,4]oxazin-8-yl)ethylamino)ethyl)propanamide bis(trifluoroacetate)] |
| 0.97 | O=C1COc2c(CCNCCN(C(=O)CCNCCc3ccc(C(=O)O)cc3)C3CCCCC3)ccc(O)c2N1 [Example 43, 4-(2-(3-(Cyclohexyl(2-(2-(5-hydroxy-3-oxo-3,4-dihydro-2H-benzo[b][1,4]oxazin-8-yl)ethylamino)ethyl)amino)-3-oxopropylamino)ethyl)benzoic acid bis(trifluoroacetate)] |
| 0.65 | O=C(CCNCCc1ccc(F)cc1)N(CCNCCc1ccc(O)c2[nH]c(=O)ccc12)C1CCCCCC1 [Example 6, N-Cycloheptyl-3-(4-fluorophenethylamino)-N-(2-(2-(8-hydroxy-2-oxo-1,2-dihydroquinolin-5-yl)ethylamino)ethyl)propanamide bis(trifluoroacetate)] |
| 0.88 | O=C(CCNCCc1cc(F)cc(F)c1)N(CCNCCc1ccc(O)c2[nH]c(=O)ccc12)C1CCCCC1 [Example 15, N-Cyclohexyl-3-(3,5-difluorophenethylamino)-N-(2-(2-(8-hydroxy-2-oxo-1,2-dihydroquinolin-5-yl)ethylamino)ethyl)propanamide bis(trifluoroacetate)] |
| 0.91 | O=C1COc2c(CCNCCN(C(=O)CCNCCc3cccc(Cl)c3Cl)C3CCCCC3)ccc(O)c2N1 [Example 29, N-Cyclohexyl-3-(2,3-dichlorophenethylamino)-N-(2-(2-(5-hydroxy-3-oxo-3,4-dihydro-2H-benzo[b][1,4]oxazin-8-yl)ethylamino)ethyl)propanamide bis(trifluoroacetate)] |
| 0.9 | Cc1ccc(F)c(CCNCCC(=O)N(CCNCCc2ccc(O)c3c2OCC(=O)N3)C2CCCCC2)c1 [Example 33, N-Cyclohexyl-3-(2-fluoro-5-methylphenethylamino)-N-(2-(2-(5-hydroxy-3-oxo-3,4-dihydro-2H-benzo[b][1,4]oxazin-8-yl)ethylamino)ethyl)propanamide bis(trifluoroacetate)] |
| 0.76 | O=C(CCNCCc1ccccc1)N(CCNCCc1ccc(O)c2[nH]c(=O)ccc12)C1CCCCCC1 [Example 7, N-Cycloheptyl-N-(2-(2-(8-hydroxy-2-oxo-1,2-dihydroquinolin-5-yl)ethylamino)ethyl)-3-(phenethylamino)propanamide bis(trifluoroacetate)] |
